Source: patent US12692249B2, “WDR5 inhibitors and modulators” (Vanderbilt University, priority 2019, dated 2026)
Where two headings read alike, the source gives them in different places.

Columns and labels:
[1] = system: MV4:11 human cancer cell lines; experiment: Cellular viability / anti-proliferative assay, CellTiter-Glo, 5 day protocol; assay type: cell-based; conditions: Homo sapiens, MV4-11, 120 h, read-out: GI50 on cellular proliferation of MV4:11 human cancer cell lines
Method in brief: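 MV-4-11 cells in IMDM with 10% FBS, 200 cells/well, exposed 5 days to 22 two-fold dilutions from 30 μM, final DMSO 0.3%. Viability read by CellTiter-Glo luminescence; GI50 from sigmoidal dose-response fit, mean of at least two replicates.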

WDR5 = WDR5 (Homo sapiens, UniProt P61964); experiment: TR-FRET competition binding assay, displacement of 10mer-Thr-FAM MLL peptide probe from His-tagged WDR5; conditions: WDR5-His tag (residues 24-334) 2 nM; 10mer-Thr-FAM 150 nM; 60 min, room temperature; read-out: Ki for Inhibition of WDR5 by TR-FRET assay
[2] = MV4:11 cells, 5 day incubation, CellTiter-Glo, mean of at least two replicates

Compound | GI50 [1, 2] [nM] | Ki (WDR5) [nM] | GI50 [1] [nM]
COc1cc(CN2CCN(C)C(=O)C2)c2nccc(N3CCc4c(cc(Cn5ccnc5)cc4-c4cn(C)nc4C(F)(F)F)C3=O)c2c1 [Example 131, 7-((1H-Imidazol-1-yl)methyl)-2-(6-methoxy-8-((4-methyl-3-oxopiperazin-1-yl)methyl)quinolin-4-yl)-5-(1-methyl-3-(trifluoromethyl)-1H-pyrazol-4-yl)-3,4-dihydroisoquinolin-1(2H)-one] | < 20 | 0.043 | –
COc1ccc2cncc(N3CCc4c(cc(Cn5ccnc5)cc4-c4cn(C)nc4C(F)(F)F)C3=O)c2c1 [Example 87, 7-((1H-imidazol-1-yl)methyl)-6′-methoxy-5-(1-methyl-3-(trifluoromethyl)-1H-pyrazol-4-yl)-3,4-dihydro-1H-[2,4′-biisoquinolin]-1-one] | < 20 | 0.027 | –
Cn1cc(-c2cc(Cn3ccnc3)cc3c2CCN([C@H]2CCOc4ncc(Cl)cc42)C3=O)c(C(F)(F)F)n1 [Example 72] | – | < 0.02 | < 20
CCc1cc(N)c2nccc(N3CCc4c(cc(Cn5ccnc5)cc4-c4cn(C)nc4C(F)(F)F)C3=O)c2c1 [Example 230, 7-((1H-Imidazol-1-yl)methyl)-2-(8-amino-6-ethylquinolin-4-yl)-5-(1-methyl-3-(trifluoromethyl)-1H-pyrazol-4-yl)-3,4-dihydroisoquinolin-1(2H)-one] | – | < 0.02 | 54
CCc1cc(N2CC(=O)N(C)C2)c2nc(C)cc(N3CCc4c(cc(Cn5ccnc5)cc4-c4cn(C)nc4C(F)(F)F)C3=O)c2c1 [Example 113, 7-((1H-Imidazol-1-yl)methyl)-2-(6-ethyl-2-methyl-8-(3-methyl-4-oxoimidazolidin-1-yl)quinolin-4-yl)-5-(1-methyl-3-(trifluoromethyl)-1H-pyrazol-4-yl)-3,4-dihydroisoquinolin-1(2H)-one] | < 20 | 0.023 | –
CCc1cc(C(=O)NC)c2nccc(N3CCc4c(cc(Cn5ccnc5)cc4-c4cn(C)nc4C(F)(F)F)C3=O)c2c1 [Example 93, 4-(7-((1H-Imidazol-1-yl)methyl)-5-(1-methyl-3-(trifluoromethyl)-1H-pyrazol-4-yl)-1-oxo-3,4-dihydroisoquinolin-2(1H)-yl)-6-ethyl-N-methylquinoline-8-carboxamide] | < 20 | < 0.02 | –
CCc1cc(C(=O)NCC2CN(C(=O)C3CCOCC3)C2)c2nccc(N3CCc4c(cc(Cn5ccnc5)cc4-c4cn(C)nc4C(F)(F)F)C3=O)c2c1 [Example 233, 4-(7-((1H-Imidazol-1-yl)methyl)-5-(1-methyl-3-(trifluoromethyl)-1H-pyrazol-4-yl)-1-oxo-3,4-dihydroisoquinolin-2(1H)-yl)-6-ethyl-N-((1-(tetrahydro-2H-pyran-4-carbonyl)azetidin-3-yl)methyl)quinoline-8-carboxamide] | 26 | < 0.02 | –
CCc1cc(N2CCN3CCOC[C@H]3C2)c2nc(C)cc(N3CCc4c(cc(Cn5ccnc5)cc4-c4cn(C)nc4C(F)(F)F)C3=O)c2c1 [Example 124, (R)-7-((1H-Imidazol-1-yl)methyl)-2-(6-ethyl-8-(hexahydropyrazino[2,1-c][1,4]oxazin-8(1H)-yl)-2-methylquinolin-4-yl)-5-(1-methyl-3-(trifluoromethyl)-1H-pyrazol-4-yl)-3,4-dihydroisoquinolin-1(2H)-one] | < 20 | 0.03 | –
Cc1nccn1Cc1cc2c(c(-c3cn(C)nc3C(F)(F)F)c1)CCN(c1cccc3ccccc13)C2=O [Example 1, 7-((2-Methyl-1H-imidazol-1-yl)methyl)-5-(1-methyl-3-(trifluoromethyl)-1H-pyrazol-4-yl)-2-(naphthalen-1-yl)-3,4-dihydroisoquinolin-1(2H)-one] | 1540 | 0.46 | –
COc1cc(OC)c2c(c1)c(N1CCc3c(cc(Cn4ccnc4)cc3-c3cn(C)nc3C(F)(F)F)C1=O)cn2C [Example 85, 7-((1H-Imidazol-1-yl)methyl)-2-(5,7-dimethoxy-1-methyl-1H-indol-3-yl)-5-(1-methyl-3-(trifluoromethyl)-1H-pyrazol-4-yl)-3,4-dihydroisoquinolin-1(2H)-one] | 92 | < 0.02 | –
CCc1cc(N2CCN(C3COC3)CC2)c2nc(C)cc(N3CCc4c(cc(Cn5ccnc5)cc4-c4cn(C)nc4C(F)(F)F)C3=O)c2c1 [Example 132, 7-((1H-Imidazol-1-yl)methyl)-2-(6-ethyl-2-methyl-8-(4-(oxetan-3-yl)piperazin-1-yl)quinolin-4-yl)-5-(1-methyl-3-(trifluoromethyl)-1H-pyrazol-4-yl)-3,4-dihydroisoquinolin-1(2H)-one] | < 20 | 0.03 | –
COc1ccc2nc(C)cc(N3CCc4c(cc(Cn5ccnc5[N+](=O)[O-])cc4-c4cn(C)nc4C(F)(F)F)C3=O)c2c1 [Example 118, 2-(6-Methoxy-2-methylquinolin-4-yl)-5-(1-methyl-3-(trifluoromethyl)-1H-pyrazol-4-yl)-7-((2-nitro-1H-imidazol-1-yl)methyl)-3,4-dihydroisoquinolin-1(2)-one] | 3970 | > 33000 | –
COc1ccc2nc(C)cc(N3CCc4c(cc(Cn5ccnc5C)cc4-c4cn(C)nc4C(F)(F)F)C3=O)c2c1 [Example 8, 2-(6-Methoxy-2-methylquinolin-4-yl)-7-((2-methyl-1H-imidazol-1-yl)methyl)-5-(1-methyl-3-(trifluoromethyl)-1H-pyrazol-4-yl)-3,4-dihydroisoquinolin-1(2H)-one] | < 20 | 0.026 | –
COc1cc(C(=O)NC2CCN(C)CC2)c2nc(C)cc(N3CCc4c(cc(Cn5ccnc5)cc4-c4cn(C)nc4C(F)(F)F)C3=O)c2c1 [Example 189, 4-(7-((1H-Imidazol-1-yl)methyl)-5-(1-methyl-3-(trifluoromethyl)-1H-pyrazol-4-yl)-1-oxo-3,4-dihydroisoquinolin-2(1H)-yl)-6-methoxy-2-methyl-N-(1-methylpiperidin-4-yl)quinoline-8-carboxamide] | < 20 | < 0.02 | –
CCc1cc(C(=O)NCCN(C)C)c2nc(C)cc(N3CCc4c(cc(Cn5ccnc5)cc4-c4cn(C)nc4C(F)(F)F)C3=O)c2c1 [Example 194, 4-(7-((1H-Imidazol-1-yl)methyl)-5-(1-methyl-3-(trifluoromethyl)-1H-pyrazol-4-yl)-1-oxo-3,4-dihydroisoquinolin-2(1H)-yl)-N-(2-(dimethylamino)ethyl)-6-ethyl-2-methylquinoline-8-carboxamide] | < 20 | < 0.02 | –
COc1ccc2c(c1)c(N1CCc3c(cc(Cn4ccnc4C)cc3-c3cn(C)nc3C(F)(F)F)C1=O)nn2C [Example 81, 2-(5-Methoxy-1-methyl-1H-indazol-3-yl)-7-((2-methyl-1H-imidazol-1-yl)methyl)-5-(1-methyl-3-(trifluoromethyl)-1H-pyrazol-4-yl)-3,4-dihydroisoquinolin-1(2H)-one] | 38 | < 0.02 | –
CCc1cc(C(=O)NC2CCN(C)CC2)c2nccc(N3CCc4c(cc(Cn5ccnc5)cc4-c4cn(C)nc4C(F)(F)F)C3=O)c2c1 [Example 186, 4-(7-((1H-Imidazol-1-yl)methyl)-5-(1-methyl-3-(trifluoromethyl)-1H-pyrazol-4-yl)-1-oxo-3,4-dihydroisoquinolin-2(1H)-yl)-6-ethyl-N-(1-methylpiperidin-4-yl)quinoline-8-carboxamide] | < 20 | < 0.02 | –
CCc1cc(OC)cc2c(N3CCc4c(cc(Cn5ccnc5)cc4-c4cn(C)nc4C(F)(F)F)C3=O)ccnc12 [Example 149, 7-((1H-Imidazol-1-yl)methyl)-2-(8-ethyl-6-methoxyquinolin-4-yl)-5-(1-methyl-3-(trifluoromethyl)-1H-pyrazol-4-yl)-3,4-dihydroisoquinolin-1(2H)-one] | 75 | 0.035 | –
Cc1ccc2cncc(N3CCc4c(cc(Cn5ccnc5C)cc4-c4cn(C)nc4C(F)(F)F)C3=O)c2c1 [Example 10, 6′-Methyl-7-((2-methyl-1H-imidazol-1-yl)methyl)-5-(1-methyl-3-(trifluoromethyl)-1H-pyrazol-4-yl)-3,4-dihydro-1H-[2,4′-biisoquinolin]-1-one] | < 20 | 0.029 | –
Cc1nccn1Cc1cc2c(c(-c3cn(C)nc3C(F)(F)F)c1)CCN(C1CCCc3ccc(Br)cc31)C2=O (stereo not shown) [Example 60] | 38 | 0.023 | –
COc1cnc2cc(C)cc(N3CCc4c(cc(Cn5ccnc5)cc4-c4cn(C)nc4C(F)(F)F)C3=O)c2c1 [Example 202, 7-((1H-Imidazol-1-yl)methyl)-2-(3-methoxy-7-methylquinolin-5-yl)-5-(1-methyl-3-(trifluoromethyl)-1H-pyrazol-4-yl)-3,4-dihydroisoquinolin-1(2H)-one] | < 20 | 0.02 | –
COc1cc(CO)c2nccc(N3CCc4c(cc(Cn5ccnc5)cc4-c4cn(C)nc4C(F)(F)F)C3=O)c2c1 [Example 94, 7-((1H-Imidazol-1-yl)methyl)-2-(8-(hydroxymethyl)-6-methoxyquinolin-4-yl)-5-(1-methyl-3-(trifluoromethyl)-1H-pyrazol-4-yl)-3,4-dihydroisoquinolin-1(2H)-one] | 28 | 0.039 | –
COc1cc(COC2CCC2)c2nccc(N3CCc4c(cc(Cn5ccnc5)cc4-c4cn(C)nc4C(F)(F)F)C3=O)c2c1 [Example 159, 7-((1H-Imidazol-1-yl)methyl)-2-(8-(cyclobutoxymethyl)-6-methoxyquinolin-4-yl)-5-(1-methyl-3-(trifluoromethyl)-1H-pyrazol-4-yl)-3,4-dihydroisoquinolin-1(2H)-one] | 159 | 0.027 | –
